Results on 8 compounds are retold here after patent US20100137136A1, “HERBICIDE/SAFENER COMBINATION” (BAYER CROPSCIENCE AG, priority 2008, published 2010).

What all share (assay type): in vivo
The test system of one assay is Rice (Ballila). Kind of assay: Post-emergence herbicidal effect and safener effect, rice. Conditions: for % effect (with safener) / % Reduction: herbicide I-2 80 g a.i./ha + safener 200 g a.i./ha; for % Reduction: reduction of effect by safener. On the procedure: (§1) Seeds or rhizome pieces of mono- and dicotyledonous harmful plants and of crop plants are planted in peat pots in sandy loam, covered with earth and grown in a greenhouse under good growth conditions. Alternatively to this, harmful plants occurring in the paddy rice cultivation are cultivated in pots in which water stands up to 2 cm above the soil surface. 10 to 20 days after sowing, the test plants are treated in the one to three-leaf stage. The herbicide/safener active ingredient combinations according to the invention, formulated as water-soluble powders or suspensions, and, in parallel experiments, the correspondingly formulated individual active ingredients are sprayed onto the green plant parts in various dosages using an application rate of 300 l of water/ha (converted) and, after the test plants have remained in the greenhouse under optimum growth conditions for 2-3 weeks, the effect of the preparations is scored visually in comparison with untreated controls. In the case of rice or in the case of harmful plants which occur in the rice cultivation, the active ingredients are also placed directly into the irrigation water (application analogous to the so-called granules application) or sprayed onto plants and into the irrigation water.

The subject of assay [1] is Corn (Aventura). Kind of assay: Post-emergence herbicidal effect and safener effect, corn. The following applies: for % Reduction: reduction of effect by safener. On the procedure: as §1
In assay [2] the test system is Wheat (Triso). Briefly: Pre-emergence herbicidal effect and safener effect, wheat. The following applies: for % Reduction: reduction of effect by safener. The source says:
(§2) Seeds or rhizome pieces of mono- and dicotyledonous weed plants and crop plants were planted in peat pots in sandy loam and covered with earth. The herbicide/safener active ingredient combinations according to the invention, formulated as water-soluble powders or suspensions, and, in parallel experiments, the correspondingly formulated individual active ingredients were then applied to the surface of the covering earth at an application rate of 600 to 800 l of water/ha (converted) in a variety of dosages.

Assay [3] has as its system Wheat (Triso). Briefly: Post-emergence herbicidal effect and safener effect, wheat. The following applies: for % effect (with safener) / % Reduction: herbicide I-2 20 g a.i./ha + safener 50 g a.i./ha; for % Reduction: reduction of effect by safener. Here is the method: as §1
The subject of assay [4] is Corn (Aventura). Kind of assay: Pre-emergence herbicidal effect and safener effect, corn. The following applies: for % effect (with safener) / % Reduction: herbicide I-2 80 g a.i./ha + safener 200 g a.i./ha; for % Reduction: reduction of effect by safener.
From the text: as §2

The test system of another assay is Barley (Adonis). Briefly: Post-emergence herbicidal effect and safener effect, barley. The following applies: herbicide 20 g a.i./ha, no safener, scored visually vs untreated controls. Here is the method:
as §1

[5] abbreviates: herbicide I-2 20 g a.i./ha + safener 50 g a.i./ha.
[6] abbreviates: herbicide I-2 80 g a.i./ha + safener 200 g a.i./ha.
[7] abbreviates: herbicide I-2 20 g a.i./ha alone.
The mark [8] stands for this setting: herbicide I-2 80 g a.i./ha alone.

On to `CCCCCC(C)OC(=O)COc1ccc(Cl)c2cccnc12` (stereo not drawn) [Compound S2-1, 1-methylhexyl(5-chloro-8-quinolinoxy)acetate], for which the “% effect (with safener)” value in the assay on Rice (Ballila) is reported as 10%; in the assay on Corn (Aventura) [1] (setting [5]), 20%; in the assay on Wheat (Triso) [2] (setting [6]), 20%. The results for the “% Reduction” value with Rice (Ballila), with Corn (Aventura) [1] (setting [5]) and in the assay on Wheat (Triso) [2] (setting [6]) were 67%, 50% and 33%, respectively.
Consider `O=C(O)c1nc(C(Cl)(Cl)Cl)n(-c2ccc(Cl)cc2Cl)n1` [Fenchlorazole], for which, in the assay on Wheat (Triso) [2] (setting [5]), the “% effect (with safener)” value stood at 10% and the “% Reduction” value was determined as 67%.
For the compound `CCOC(=O)C1=NOC(c2ccccc2)(c2ccccc2)C1` [Isoxadifen-ethyl, ethyl 5,5-diphenyl-2-isoxazoline-carboxylate], the “% effect (with safener)” value is given as 0% in the assay with Wheat (Triso) [3]; 20% in the assay on Rice (Ballila); 20% in the assay with Corn (Aventura) [1] (setting [6]); 25% in the assay with Corn (Aventura) [4]; 10% in the assay with Wheat (Triso) [2] (setting [5]). The “% Reduction” value in the assay on Wheat (Triso) [3] is on record as 100%; with Rice (Ballila) it was 33%; with Corn (Aventura) [1] (setting [6]), 50%; with Corn (Aventura) [4] it was 29%; in the assay on Wheat (Triso) [2] (setting [5]), 67%.
In the case of `CC1COc2ccccc2N1C(=O)C(Cl)Cl` (stereo not drawn) [Compound S3-4, 4-dichloroacetyl-3,4-dihydro-3-methyl-2H-1,4-benzoxazine], in the assay with Corn (Aventura) [1] (setting [6]), the “% effect (with safener)” value was 10% and the “% Reduction” value came to 75%.
With `FC(F)(F)C(=NOCC1OCCO1)c1ccc(Cl)cc1` [Compound S11-2, 1-(4-chlorophenyl)-2,2,2-trifluoro-1-ethanone O-(1,3-dioxolan-2-ylmethyl)oxim], in the assay on Wheat (Triso) [2] (setting [5]), the “% effect (with safener)” value was found to be 20% and the “% Reduction” value turned out to be 33%.
In the case of `COC(=O)c1nc(C2CC2)cc(N)c1Cl` [Compound I-2, methyl 4-amino-3-chloro-6-cyclopropyl-2-pyridinecarboxylate], the “% effect (without safener)” value with Wheat (Triso) [3] (setting [7]) was found to be 20%; in the assay with Rice (Ballila) (setting [8]) it was 30%; with Corn (Aventura) [1] (setting [7]) it was 40%; in the assay with Corn (Aventura) [1] (setting [8]) it was 40%; in the assay on Corn (Aventura) [4] (setting [8]), 35%; with Wheat (Triso) [2] (setting [7]), 30%. For the same compound, the “% effect (without safener)” value was 30% with Wheat (Triso) [2] (setting [8]) and 20% in the assay on Barley (Adonis).
On to `CC1(C)OC(c2ccco2)CN1C(=O)C(Cl)Cl` (racemic) [Compound S3-10, (RS)-3-dichloroacetyl-5-(2-furyl)-2,2-dimethyloxazolidine], for which, in the assay on Corn (Aventura) [1] (setting [5]), the “% effect (with safener)” value came out at 20% and the “% Reduction” value is given as 50%. In addition, in the assay on Wheat (Triso) [2] (setting [5]), the “% effect (with safener)” value is 10% and the “% Reduction” value was determined as 67%.
`CCOC(=O)C1=NN(c2ccc(Cl)cc2Cl)C(C)(C(=O)OCC)C1` (stereo not drawn) [Mefenpyr-diethyl, ethyl 1-(2,4-dichlorophenyl)-5-(ethoxycarbonyl)-5-methyl-2-pyrazoline-3-carboxylate]: the “% effect (with safener)” value with Wheat (Triso) [3] came out at 0%; in the assay on Corn (Aventura) [1] (setting [5]), 20%; in the assay on Corn (Aventura) [4] it was 20%; in the assay on Wheat (Triso) [2] (setting [5]), 20%. The “% Reduction” value in the assay with Wheat (Triso) [3] came out at 100%; in the assay with Corn (Aventura) [1] (setting [5]), 50%; with Corn (Aventura) [4] it was 43%; in the assay on Wheat (Triso) [2] (setting [5]), 33%.
